In general, EC50 refers to the concentration giving half of the maximal effect. Lower therefore signals an effect from little substance.

Assay [1] has as its target T1, human CYP11B1 (Homo sapiens, UniProt P15538).
T1 construct: expressed in transfected cells
T1 sequence (P15538 25-503): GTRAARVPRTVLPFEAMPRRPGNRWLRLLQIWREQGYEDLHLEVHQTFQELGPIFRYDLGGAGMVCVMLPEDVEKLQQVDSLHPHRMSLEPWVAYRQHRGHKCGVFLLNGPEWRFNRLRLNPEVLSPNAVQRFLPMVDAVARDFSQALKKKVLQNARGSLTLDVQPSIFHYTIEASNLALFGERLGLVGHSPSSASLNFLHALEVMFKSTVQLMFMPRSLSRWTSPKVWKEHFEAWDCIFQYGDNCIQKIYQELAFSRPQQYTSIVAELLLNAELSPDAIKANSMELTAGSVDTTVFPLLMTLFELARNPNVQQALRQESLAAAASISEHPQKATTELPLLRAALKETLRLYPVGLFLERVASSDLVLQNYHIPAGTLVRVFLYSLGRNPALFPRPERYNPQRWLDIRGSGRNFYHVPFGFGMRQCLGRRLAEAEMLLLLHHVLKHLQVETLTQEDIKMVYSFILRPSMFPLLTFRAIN
The assay can be described thus: G-402 cellular enzyme assay, human CYP11B1 (cortisol release, HTRF). It is filed as cell-based. As to conditions: G-402 cells expressing human CYP11B1; 1 μM Deoxycortisol; 16 h. The text has this:
(§1) Herein we identified the use of the G-402 cell line as a host cell to ectopically express (transiently or stably) enzymes of the CYP11 family. Specifically we developed stable G-402 cells expressing ectopically human CYP11B1, human CYP11B2, human CYP11A1, cynomolgus CYP11B1 or cynomolgus CYP11B2 enzyme activity. Importantly, the identified cell line G-402 expresses co-factors (adrenodoxin and adrenodoxin reductase) important for the activity of the CYP11 family, and no relevant enzyme activity of the CYP11 family (in comparison to H295R cells) was detected in these cells. Therefore the G-402 cell line is uniquely suited as a host cell for the ectopic expression of enzymes from the CYP11 family.
(§2) G-402 cells can be obtained from ATCC(CRL-1440) and were originally derived from a renal leiomyoblastoma.
(§3) The expression plasmids contains the ORF for either human/cyno CYP11B1 or CYP11B2 under the control of a suitable promoter (CMV-promoter) and a suitable resistance marker (neomycin). Using standard techniques the expression plasmid is transfected into G-402 cells and these cells are then selected for expressing the given resistance markers. Individual cell-clones are then selected and assessed for displaying the desired enzymatic activity using 11-Deoxycorticosterone (Cyp11B2) or 11-Deoxycortisol (Cyp11B1) as a substrate.
(§4) G-402 cells expressing CYP11 constructs were established as described above and maintained in McCoy's 5a Medium Modified, ATCC Catalog No. 30-2007 containing 10% FCS and 400 μg/ml G418 (Geneticin) at 37° C. under an atmosphere of 5% CO2/95% air. Cellular enzyme assays were performed in DMEM/F12 medium containing 2.5% charcoal treated FCS and appropriate concentration of substrate (0.3-10 uM 11-Deoxycorticosterone, 11-Deoxycortisol or Corticosterone). For assaying enzymatic activity, cells were plated onto 96 well plates and incubated for 16 h. An aliquot of the supernatant is then transferred and analyzed for the concentration of the expected product (Aldosterone for CYP11B2; Cortisol for CYP11B1). The concentrations of these steroids can be determined using HTRF assays from CisBio analyzing either Aldosterone or Cortisol.
(§5) Inhibition of the release of produced steroids can be used as a measure of the respective enzyme inhibition by test compounds added during the cellular enzyme assay. The dose dependent inhibition of enzymatic activity by a compound is calculated by means of plotting added inhibitor concentrations (x-axes) vs. measured steroid/product level (y-axes). The inhibition is then calculated by fitting the following 4-parameter sigmoidal function (Morgan-Mercer-Flodin (MMF) model) to the raw data points using the least squares method:
(§6) [formula] wherein A is the maximum y value, B is the EC50 factor determined using XLFit, C is the minimum y value and D is the slope value.
(§7) EC50 values for compounds claimed herein were tested with the G402-based assay system described. Cyp11B2 enzyme activity was tested in presence of 1 μM Deoxycorticosterone and variable amounts of inhibitors; Cyp11B1 enzyme activity was tested in presence of 1 μM Deoxycortisol and variable amounts of inhibitors.
(In general: Time-resolved FRET reads energy transfer from a long-lived donor to a nearby acceptor.)

Assay [2] has as its target T2, human CYP11B2 (Homo sapiens, UniProt P19099).
T2 construct: expressed in transfected cells
T2 sequence (P19099 25-503): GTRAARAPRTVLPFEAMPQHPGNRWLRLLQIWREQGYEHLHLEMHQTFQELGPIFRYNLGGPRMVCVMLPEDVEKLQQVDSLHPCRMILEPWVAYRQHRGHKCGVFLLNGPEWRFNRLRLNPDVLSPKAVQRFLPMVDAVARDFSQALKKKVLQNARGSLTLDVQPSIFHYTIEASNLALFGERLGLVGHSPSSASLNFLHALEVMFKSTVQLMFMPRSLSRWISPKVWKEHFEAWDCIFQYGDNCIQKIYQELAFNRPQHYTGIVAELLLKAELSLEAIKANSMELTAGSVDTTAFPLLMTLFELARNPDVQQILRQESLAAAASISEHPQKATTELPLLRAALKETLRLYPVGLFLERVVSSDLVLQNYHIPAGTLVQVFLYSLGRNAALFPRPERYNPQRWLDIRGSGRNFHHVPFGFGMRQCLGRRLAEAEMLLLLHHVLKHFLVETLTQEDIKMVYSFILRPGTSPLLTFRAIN
Nature of the assay: G-402 cellular enzyme assay, human CYP11B2 (aldosterone release, HTRF). It is filed as cell-based. As to conditions: G-402 cells expressing human CYP11B2; 1 μM Deoxycorticosterone; 16 h.
From the text: as §1, §2, §3, §4, §5, §6, §7

With `Cn1cncc1C(=O)c1ccc(Cl)cc1` [Example 1, (4-Chloro-phenyl)-(3-methyl-3H-imidazol-4-yl)-methanone], the values for the concentration giving a half-maximal response (EC50) in assay [1] and in assay [2] were 195 nM and 62.3 nM, respectively. Take `Cn1cncc1C(=O)c1ccc(C#N)cc1` [Example 2, 4-(3-Methyl-3H-imidazole-4-carbonyl)-benzonitrile]: the EC50 in assay [1] was determined as 368 nM; in assay [2], 11.6 nM. For `Cn1cncc1C(=O)c1ccc(Cl)c(Cl)c1` [Example 3, (3,4-Dichloro-phenyl)-(3-methyl-3H-imidazol-4-yl)-methanone], the EC50 turned out to be 167 nM in assay [1] and 4.9 nM in assay [2].

For the molecule `COc1ccc(C(=O)c2cncn2C)cc1` [Example 4, (4-Methoxy-phenyl)-(3-methyl-3H-imidazol-4-yl)-methanone], the EC50 was 3500 nM in assay [1] and 118 nM in assay [2].

On to `CCn1cncc1C(=O)c1ccc(C#N)cc1` [Example 5, 4-(3-Ethyl-3H-imidazole-4-carbonyl)-benzonitrile], for which the EC50 in assay [1] was 46.8 nM; in assay [2], 2.6 nM. In the case of `CC(C)n1cncc1C(=O)c1ccc(C#N)cc1` [Example 6, 4-(3-Isopropyl-3H-imidazole-4-carbonyl)-benzonitrile], the results for the 50% effective concentration (EC50) in assay [1] and in assay [2] were 4.5 nM and 0.8 nM, respectively. As to `CCn1cncc1C(=O)c1ccc(Cl)cc1` [Example 7, (4-Chloro-phenyl)-(3-ethyl-3H-imidazol-4-yl)-methanone], the EC50 came out at 65.9 nM in assay [1] and 4.4 nM in assay [2]. As to `Cn1cncc1C(=O)c1ccc(C#N)cc1F` [Example 8, 3-Fluoro-4-(3-methyl-3H-imidazole-4-carbonyl)-benzonitrile], the EC50 amounted to 2500 nM in assay [1] and 98.6 nM in assay [2]. Take `Cn1cncc1C(=O)c1ccc(Cl)c(F)c1` [Example 9, (4-Chloro-3-fluoro-phenyl)-(3-methyl-3H-imidazol-4-yl)-methanone]: the concentration for a half-maximal effect (EC50) came to 187 nM in assay [1] and 7.7 nM in assay [2]. Consider `CC(C)n1cncc1C(=O)c1ccc(C#N)cc1F` [Example 10, 3-Fluoro-4-(3-isopropyl-3H-imidazole-4-carbonyl)-benzonitrile], for which the 50% effective concentration (EC50) in assay [1] stood at 70.3 nM; in assay [2], 10.8 nM.

Regarding `Cn1cncc1C(=O)c1ccc(Cl)cc1Cl` [Example 11, (2,4-Dichloro-phenyl)-(3-methyl-3H-imidazol-4-yl)-methanone], the EC50 in assay [1] came to 1800 nM; in assay [2], 216 nM. Turning to `CC(C)n1cncc1C(=O)c1cccc(Cl)c1` [Example 12, (3-Chloro-phenyl)-(3-isopropyl-3H-imidazol-4-yl)-methanone], the EC50 in assay [1] was determined as 5.3 nM; in assay [2] it was 1.3 nM.

Consider `CC(C)n1cncc1C(=O)c1ccc(Cl)cc1` [Example 13, (4-Chloro-phenyl)-(3-isopropyl-3H-imidazol-4-yl)-methanone], for which the EC50 came to 5.6 nM in assay [1] and 2.1 nM in assay [2]. On the same counts, the results for `CC(C)n1cncc1C(=O)c1ccc(Cl)c(Cl)c1` [Example 14, (3,4-Dichloro-phenyl)-(3-isopropyl-3H-imidazol-4-yl)-methanone] are 1.8 nM and 0.5 nM. For `CCn1cncc1C(=O)c1ccc(Cl)c(Cl)c1` [Example 15, (3,4-Dichloro-phenyl)-(3-ethyl-3H-imidazol-4-yl)-methanone] the same measures were 20 nM and 1.8 nM. Turning to `CCC(C)n1cncc1C(=O)c1ccc(C#N)cc1` (stereo not shown) [Example 16, 4-(3-sec-Butyl-3H-imidazole-4-carbonyl)-benzonitrile], the results for the half-maximal effective concentration (EC50) in assay [1] and in assay [2] were 1 nM and 0.7 nM, respectively. As for `CCC(C)n1cncc1C(=O)c1ccc(Cl)cc1` (stereo not shown) [Example 17], the EC50 in assay [1] is 3.5 nM; in assay [2] it was 0.3 nM. Take `N#Cc1ccc(C(=O)c2cncn2C2CC2)cc1` [Example 18, 4-(3-Cyclopropyl-3H-imidazole-4-carbonyl)-benzonitrile]: the 50% effective concentration (EC50) in assay [1] was found to be 28.7 nM; in assay [2], 2.3 nM. With `O=C(c1ccc(Cl)cc1)c1cncn1C1CC1` [Example 19, (4-Chloro-phenyl)-(3-cyclopropyl-3H-imidazol-4-yl)-methanone], the EC50 in assay [1] was determined as 52.9 nM; in assay [2], 6.1 nM. As to `N#Cc1ccc(C(=O)c2cncn2CC(F)(F)F)cc1` [Example 20, 4-[3-(2,2,2-Trifluoro-ethyl)-3H-imidazole-4-carbonyl]-benzonitrile], the EC50 in assay [1] was 190 nM; in assay [2] it was 23.5 nM.

Turning to `Cn1cncc1C(=O)c1cccc(C#N)c1` [Example 21, 3-(3-Methyl-3H-imidazole-4-carbonyl)-benzonitrile], the EC50 in assay [1] was determined as 8710 nM; in assay [2] it was 583 nM.

On to `Cn1cncc1C(=O)c1cccc(Cl)c1` [Example 22, (3-Chloro-phenyl)-(3-methyl-3H-imidazol-4-yl)-methanone], for which the EC50 worked out at 543 nM in assay [1] and 32.6 nM in assay [2].

For `Cn1cncc1C(=O)c1ccc(F)cc1` [Example 23, (4-Fluoro-phenyl)-(3-methyl-3H-imidazol-4-yl)-methanone], the concentration for a half-maximal effect (EC50) came out at 151 nM in assay [1] and 49.3 nM in assay [2]. `Cn1cncc1C(=O)c1cccc(F)c1` [Example 24, (3-Fluoro-phenyl)-(3-methyl-3H-imidazol-4-yl)-methanone]: the half-maximal effective concentration (EC50) in assay [1] turned out to be 673 nM; in assay [2] it was 65.2 nM. On the same counts, the results for `CN1C(=O)CCc2cc(C(=O)c3cncn3C)ccc21` [Example 25, 1-Methyl-6-(3-methyl-3H-imidazole-4-carbonyl)-3,4-dihydro-1H-quinolin-2-one] are 7880 nM and 77 nM. `Cn1cncc1C(=O)c1ccc(C(C)(C)C)cc1` [Example 30, (4-tert-Butyl-phenyl)-(3-methyl-3H-imidazol-4-yl)-methanone] yielded an EC50 in assay [1] of 9880 nM.

In turn, `Cn1cncc1C(=O)c1ccc(S(C)(=O)=O)cc1` [Example 47, (4-Methanesulfonyl-phenyl)-(3-methyl-3H-imidazol-4-yl)-methanone] returned a 50% effective concentration (EC50) in assay [2] of 3530 nM. On to `CC(=O)N(C)c1ccc(C(=O)c2cncn2C)cc1` [Example 55, N-Methyl-N-[4-(3-methyl-3H-imidazole-4-carbonyl)-phenyl]-acetamide], for which the response in assay [2] was half-maximal at 923 nM (EC50). This EC50 lies about 3.8-fold lower than the previous one. Molecule `Cn1cncc1C(=O)c1ccc(SC(F)(F)F)cc1` [Example 73, (3-Methyl-3H-imidazol-4-yl)-(4-trifluoromethylsulfanyl-phenyl)-methanone] came in with an EC50 in assay [2] of 390 nM. Consider `CN(C(=O)OC(C)(C)C)c1ccc(C(=O)c2cncn2C)cc1` [Example 85, Methyl-[4-(3-methyl-3H-imidazole-4-carbonyl)-phenyl]-carbamic acid tert-butyl ester], for which, in assay [1], the EC50 was found to be 12500 nM.

These data come from patent publication US9464058B2 (Hoffmann-La Roche Inc., priority 2012, dated 2016).
